Patent publication US11766470B2, “Manufacture, formulation and dosing of apraglutide” (VectivBio AG, priority 2020, dated 2023)
Like-named read-outs stand apart in the source and are kept apart here. Square brackets hold non-standard residues; d marks the D form. Peptide text beside a SMILES is read from it. ξ: configuration not given here. Ile(3ξ) = CCC(C)[C@H](N)C(=O)O; Thr(3ξ) = CC(O)[C@H](N)C(=O)O; Nle = CCCC[C@H](N)C(=O)O

Key:
[1] = Plasma concentration of apraglutide (LC-MS/MS) in Phase 2 SBS-IF trial (Example 5); format: in vivo; conditions: human; for level at 168 h: sc, read-out: Mean plasma concentration before the second dose (Ctrough)
Source text: Blood samples for analysis of plasma concentration of apraglutide and fasting plasma L-citrulline, a marker of enterocyte mass, were collected at baseline, during first and second treatment injection, four days after first treatment injection and at the end of treatment.
Apraglutide and L-citrulline were quantified using a validated LC-MS-based method. For apraglutide, the analytical method used solid-phase extraction purification of the intact apraglutide molecule and its internal standard. The compounds were identified and quantified using reversed-phase HPLC with MS/MS detection using an AB Sciex API 5000 quadrupole mass spectrometer. For samples below the limit of quantification of 5.00 ng/mL, compounds were identified and quantified using reversed-phase UHPLC with MS/MS detection using an AB Sciex API 5500 quadrupole mass spectrometer. For L-citrulline, the analytical method used protein precipitation extraction of L-Citrulline and its internal standard. The compounds were identified and quantified using Hilic HPLC with MS/MS detection using an AB Sciex API 5000 quadrupole mass spectrometer.

[2] = Phase I trial, single subcutaneous 5 mg dose in subjects with severe renal impairment vs normal renal function (Example 10), pharmacokinetics; format: in vivo, human; conditions: for Geometric mean ratio for AUCinf, severe renal impairment vs normal renal function / Geometric mean ratio for Cmax, severe renal impairment vs normal renal function: single SC 5 mg; for Geometric Mean Ratio of AUCinf / Geometric Mean Ratio of Cmax: single subcutaneous dose 5 mg apraglutide, severe renal impairment (Cohort 1) vs normal renal function (Cohort 2)
Protocol: (§1) The following non-limiting example describes a Phase I clinical trial in which subjects with normal and impaired kidney function are treated with the apraglutide formulations of the present disclosure. This Phase I clinical trial investigates the pharmacokinetics and safety of a single subcutaneous dose of 5 mg apraglutide in subjects with varying degrees of renal function. The renal function is calculated by the estimated glomerular filtration rate (eGFR) according to the Chronic Kidney Disease Epidemiology (CKD-EPI) Creatinine Equation.
(§2) The trial is a two-stage, open label, multi-center, non-randomized, Phase I trial. In Part 1 of the trial, 8 subjects with severe renal impairment (Cohort 1) and 6 subjects with normal renal function (Cohort 2) will be administered a single dose 5 mg apraglutide of the present disclosure. In Part 2 of the trial, 8 subjects with moderate renal impairment (Cohort 3) and 8 subjects with mild renal impairment (Cohort 4) will be administered a single dose 5 mg apraglutide of the present disclosure. Subjects will be enrolled if the geometric mean ratio (GMR) of AUCinf or AUClast for the severe renal impairment group compared to the control group is ≥2.
Patient eligibility is assessed during a screening visit. The main inclusion criteria are: • 1. All Participants • a. Age between 18 and 75 years inclusive • b. Subjects who are willing and able to comply with the study procedures • c. Subjects able to understand and willing to sign the informed consent • d. Body mass index (BMI) of ≥17.5 to ≤40 kg/m2; and a total body weight of >50 kg (110 lb). • e. […] Sterilized or infertile or postmenopausal females. • f. […] Healthy participants • a. No clinically relevant abnormalities (medical history, vital signs, ECG, safety labs) • b. eGFR measured by CKD-EPI≥90 mL/min/1.73 m2 at two screening visits • c. […] Participants with impaired renal function • a. Severe renal impairment: eGFR<30 mL/min/1.73 m2, but not requiring hemodialysis • b. Moderate renal impairment: eGFR≥30 mL/min/1.73 m2 and <60 mL/min/1.73 m2 • c. Mild renal impairment: eGFR≥60 and <90 mL/min/1.73 m2
Primary endpoint efficacy assessments will be performed at 240 hours after single dose. […] Secondary endpoint efficacy assessments will be performed at 240 hours, 7 days, 14 days, and 28 days. Primary and secondary endpoints will be evaluated across all subjects.
The secondary endpoints to be evaluated, include, but are not limited to: • 1. Area under the concentration-time curve up to the last measurable concentration from time 0 to 7 days (AUC0-7days). Samples collected over 168 hours after single dose • 2. Time to maximum concentration (Tmax). Samples collected over 240 hours after single dose • 3. Terminal elimination rate constant. Samples collected over 240 hours after single dose • 4. Terminal elimination half-life. Samples collected over 240 hours after single dose • 5. Apparent clearance after extravascular administration (CL/F). Samples collected over 240 hours after single dose • 6. Apparent volume of distribution after extravascular administration (Vz/F). Samples collected over 240 hours after single dose • 7. Number of participants with adverse events or adverse events of special interest at days 14-28 • 8. Clinically significant change from baseline in vital signs at days 14-28 • 9. Clinically significant change from baseline in recorded triplicate 12-lead ECG at days 14-28 • 10. Number of participants who experience a clinically significant change from baseline in clinical laboratory assessments at days 14-28
The plasma concentration of apraglutide after administration of a single subcutaneous dose of 5 mg apraglutide was monitored over a period of 240 hours in both healthy subjects (Cohort 2) and subjects with severe CKD (Cohort 1) and is presented in FIG. 29.
Two outliers were identified (one in each Cohort) when analyzing the individual apraglutide plasma concentration curves. […]

[3] = human, in vivo
Protocol: 23 healthy adult volunteers received 6 weekly subcutaneous doses of apraglutide (1, 5, or 10 mg) or placebo and were followed for a further 6 weeks after the last dose. Blood collections were controlled for diet, lifestyle, and diurnal effects. […] PK data underwent non-compartmental analysis and PD data were analyzed by ANCOVA.
As with citrulline, a statistical steady-state analysis per dose level was performed for apraglutide using Helmert's approach.

[4] = Solubility, pH and isoelectric point of the peptide; format: physicochemical; conditions: purified water
[5] = test system: subjects with severe renal impairment; assay: Safety in Phase I renal impairment trial (Example 10); format: in vivo, human; conditions: 5 mg single SC dose
Protocol: as §1, §2
The secondary endpoints to be evaluated, include, but are not limited to: • 1. […] Clinically significant change from baseline in recorded triplicate 12-lead ECG at days 14-28 • 10. […]

[6] = cohort without the two outliers

CCCC[C@H](NC(=O)[C@H](CCC(=O)O)NC(=O)[C@H](CC(=O)O)NC(=O)[C@H](CO)NC(=O)[C@H](Cc1ccccc1)NC(=O)[C@H](CO)NC(=O)CNC(=O)[C@H](CC(=O)O)NC(=O)CNC(=O)[C@@H](N)Cc1c[nH]cn1)C(=O)N[C@H](Cc1ccccc1)C(=O)N[C@H](C(=O)N[C@H](C(=O)N[C@@H](CC(C)C)C(=O)N[C@@H](CC(=O)O)C(=O)N[C@@H](CC(C)C)C(=O)N[C@@H](CC(C)C)C(=O)N[C@@H](C)C(=O)N[C@@H](C)C(=O)N[C@@H](CCCNC(=N)N)C(=O)N[C@@H](CC(=O)O)C(=O)N[C@@H](Cc1ccccc1)C(=O)N[C@H](C(=O)N[C@@H](CC(N)=O)C(=O)N[C@@H](Cc1c[nH]c2ccccc12)C(=O)N[C@@H](CC(C)C)C(=O)N[C@H](C(=O)N[C@@H](CCC(N)=O)C(=O)N[C@H](C(=O)N[C@@H](CCCCN)C(=O)N[C@H](C(=O)N[C@H](C(=O)N[C@@H](CC(=O)O)C(N)=O)C(C)O)C(C)CC)C(C)O)C(C)CC)C(C)CC)C(C)CC)C(C)O (stereo partly drawn) [apraglutide, L-histidyl-glycyl-L-aspartyl-glycyl-L-seryl-L-phenylalanyl-L-seryl-L-aspartyl-L-glutamyl-L-norleucyl-D-phenylalanyl-L-threonyl-Lisoleucyl-L-leucyl-L-aspartyl-L-leucyl-L-leucyl-L-alanyl-L-alanyl-L-arginyl-L-aspartyl-L-phenylalanyl-L-isoleucyl-L-asparaginyl-Ltryptophanyl-L-leucyl-L-isoleucyl-L-glutaminyl-L-threonyl-L-lysyl-L-isoleucyl-L-threonyl-Laspartic acid amide] (H-HGDGSFSDE[Nle][dF][Thr(3ξ)][Ile(3ξ)]LDLLAARDF[Ile(3ξ)]NWL[Ile(3ξ)]Q[Thr(3ξ)]K[Ile(3ξ)][Thr(3ξ)]D-NH2)
Tmax ([1]; SBS-IF patients, SC, read-out: Time of maximum mean plasma concentration after dosing): 72 h
level at 168 h ([1]; 5 mg treatment period): 4.5 ng/mL
level at 168 h ([1]; 10 mg treatment period): 8.9 ng/mL
Geometric mean ratio for AUCinf, severe renal impairment vs normal renal function ([2]; entire subject population): 0.614
Geometric mean ratio for Cmax, severe renal impairment vs normal renal function ([2]; entire subject population): 0.572
Geometric mean ratio for AUCinf, severe renal impairment vs normal renal function ([2]; outlier subjects removed): 0.849
Geometric mean ratio for Cmax, severe renal impairment vs normal renal function ([2]; outlier subjects removed): 0.774
Geometric Mean Ratio of AUCinf [2, 6]: 0.849
Geometric Mean Ratio of Cmax [2, 6]: 0.774
Geometric Mean Ratio of AUCinf ([2]; whole cohort): 0.614
Geometric Mean Ratio of Cmax ([2]; whole cohort): 0.572
Quantifiable concentration in the last pharmacokinetic sample (2 weeks after last dose) [3]: up to 4.46 ng/mL
CL/F, arithmetic mean ± SD ([3]; 5 mg): 16.480 L/day
CL/F, arithmetic mean ± SD ([3]; 10 mg): 20.747 L/day
solubility [4]: > 100 mg/mL
Safety in patients with severe CKD, in words [5]: safe to dose the patients with severe CKD with apraglutide 5 mg, without the risk of overdose
